Data set [1] concerns the target T1, β1-INTEGRIN (ITGB1) (Homo sapiens, UniProt P05556).
T1 construct: endogenous in cells; host or cells: hNPCs differentiated from human embryonic stem cells HUES 64
Nature of the data set: ITGB1 activation and intracellular signaling in hNPCs treated with IKVAV PAs (confocal microscopy, WB). Format: cell-based. From the text:
(§1) Neural progenitor cells (NPCs) were differentiated from human embryonic stem cells HUES 64 (Harvard University) (see FIG. 2C). In short, 70% confluent stem cell cultures grown in Matrigel (Thermo Fisher) coated plates with mTESR medium (STEMCELL Technologies), were switched to N2B27 medium (50% DMEM: F12, 50% Neurobasal, supplemented with NEAA, Glutamax, N2 and B27; Gibco) containing dual SMAD inhibitors (SB431542, DNSK International and LDN-193189, Tocris) for 12 days to induce the generation of neural progenitors. Neuralization was enhanced by supplementing medium with laminin from day 5 to 12. Next, neural rosettes were dissociated with neural rosette selection reagent (STEMCELL Technologies) to obtain NPCs, which are expanded in N2B27 (Gibco) medium supplemented with bFGF (Millipore). For experimentation in the different PA platforms, NPCs were dissociated with Accutase (Innovative Cell technology), and cultured in the distinct platforms with DMEM: F12+N2+B27 medium with hyclone penicillin-streptomycin (GE Healthcare) and ascorbic acid (0.2 μg/mL; Sigma-Aldrich).
(§2) For IKVAV PA treatments, hNPCs were cultured on ornithine coatings (German Glass, Chemglass Life Science) in 6 well and 24 well plates at a density of 500,000 cells/well and 80,000 cells/well respectively. hNPCs were treated with […] of IKVAV PAs ([PA]=6 mM, [KCl]=3 mM, [NaCl]=150 mM) or recombinant laminin protein (10 mg/mL) in solution. IKVAV PA2 and IKVAV PA5 were also mixed with 5 mM CaCl2) at a ratio PA:CaCl2) 6:1 to treat hNPCs. For 2D experiments, hNPCs were cultured on the different IKVAV PAs or laminin coatings in 6 well and 24 well plates at densities mentioned above. For co-assembled experiments, hNPCs were cultured on the different co-assembled PA coatings in 6 well and 24 well plates at a density of 400,000 cells/well and 50,000 cells/well respectively.
(§3) hNPCs were fed 4 times a week with DMEM: F12+N2^+B27 medium with hyclone penicillin-streptomycin and ascorbic acid. After 24 h, 72 h 1- or 2-weeks in vitro, cell lysates were harvested or fixed for WB or ICC, respectively. Three replicates per condition and at least three independent experiments were carried out for all conditions investigated.
(§4) For immunofluorescence, fixed primary cultures or free-floating tissue sections (40 m Thick) were incubated in blocking buffer containing 0.02% Triton-X (Sigma-Aldrich), 1% NHS (Gibco) and PBS 1× (Gibco). Samples were incubated with primary antibodies over night at 4° C. Alexa-488, Alexa-555 and/or Alexa-647 (1:500, Thermofisher) were used as secondary antibodies. DAPI (1:500, Thermofisher) was used to stain nuclei. Finally, the samples were mounted on coverslips with Immu-Mount (Fisher Scientific) solution for imaging.
RIPA buffer (Thermofisher) with a cocktail of Halt Protease and Phosphatase Inhibitors (Thermofisher) was used to extract protein from in vitro and in vivo samples. For in vivo studies, spinal cord tissue was then sonicated using a horn sonicator (Branson) to break up the tissue. A Pierce™ BCA Protein Assay Kit (Thermofisher) was used to determine protein content for all samples used. Protein extracts obtained from cell cultures or tissue were separated using an SDS-polyacrylamide gel and electro-transferred to a nitrocellulose membrane (Bio-Rad). Membranes were blocked for 30 minutes to 1 hour using a 5% milk solution (Bio-Rad) and incubated over night with primary antibodies. Corresponding secondary HRP-conjugated antibodies (1:1000, ThermoFisher) were used for 1 h at room temperature. Radiance Bioluminescent ECL substrate (Azure Biosystems) was used to detect protein signal. The membranes were imaged using the Azure Biosystems imager and densitometry analysis were performed using ImageJ software.

The test system of data set [2] is hNPCs. Nature of the data set: Neuronal differentiation of hNPCs treated with IKVAV PAs (TUJ-1+ cells). It counts as cell-based, human.
From the text: as §1, §2, §3, §4
For in vitro cell quantification, image files were imported into NIH Image J (1.51) software and the “analyze particles” and “cell counter” functions were used to measure the total number of cells in a determined area. Serial tissue sections were stained with NeuN and ChAT using free-floating immunostaining were quantified using Nikon Elements software. The rostral and caudal borders of the lesions were chosen as the first cross-sections that had NeuN staining in all four gray matter horns. 8 sections within the lesion were chosen per animal and expressed as number of neurons per section. Automated multichannel image acquisition, image stitching, and z-stack reconstruction ([…]) were carried out on a Nikon GasP R1 confocal microscope to image the entire selected cross-section for NeuN and Chat markers for all conditions.

A short description of data set [3]: T2-NMR spin-spin relaxation rate of PA assemblies. Format: physicochemical. The settings on record: T2 relaxation of K residue of IKVAV PAs, no Ca2+. As for the experimental part:
NMR spectra were acquired at 600 MHz on a Tecmag NMR spectrometer using a Doty diffusion probe with a sweep width of 6 kHz and 16k data points or at 600 MHz on a Brucker Neo system with QCI-F cryoprobe.
NMR spectra for IKVAV PAs were recorded at 25° C. using TFA-d, H2O/D2O in 9/1 ratio (D2O contains 0.05 wt. % 3-(trimethylsilyl) propionic-2,2,3,3-d4 acid, sodium salt) as solvents. Chemical shifts are reported in part per million (ppm). Structural assignment was performed using ^1H,^1H-gCOSY, ^1H,^13C-gHSCQAD, TOCSY and NOESY. Multiplicities are quoted as singlet (s), doublet (d), multiplets (m), doublet of doublets (dd), doublet of doublet of doublets (ddd), triplet (t), quartet (q). The […] and typical spectra required 32 scans. Additional scans (512) were required for accurate estimation of the aromatic signal intensity since the epitope containing aromatic protons was present at only 10 mol %.
The spin-spin relaxation rates were measured using the Carr-Purcell-Gill-Meiboom pulse sequence with a delay time of 0.2 ms in a variable loop. The peak intensity data was fit to and exponential in the form:
where τ is the length of the delay time, R2 is the spin-spin relaxation rate and b are the baseline.

Data set [4] has as its system murine model of severe spinal cord injury (SCI). Nature of the data set: Corticospinal tract (CST) axon regrowth after SCI (BDA tracing). Format: in vivo, mouse. The following applies: 12 weeks after injury, BDA-labeled axons. As for the experimental part:
(§5) All experiments were conducted at the Simpson Querrey Institute at Northwestern University. 182 CD1 mice (Charles River) were subjects of this study (N=38 Sham, N=38 IKVAV PA2 alone, N=38 IKVAV PA2+FGF2 PA1, N=38 IKVAV PA2+FGF2 PA2, N=12 IKVAV PA1, N=12 Backbone PA, N=6 IKVAV PA4). The age of animals used in the study was in the range of 10-16 weeks. 8 independent in vivo experiments were carried out (injury+PA injection) and each of the 8 experiments had animals of the exact same age which were injected with at least the 4 main treatment groups: Sham, IKVAV PA2 alone, IKVAV PA2+FGF2 PA1, and IKVAV PA2+FGF2 PA2. Animals were anesthetized using 2.5% isoflurane gas with oxygen. A laminectomy was performed to expose the spinal cord at the T10-T11 spinal level. A severe contusive injury was performed using the Infinite Horizon Spinal Cord Impactor system (IH-0400 Precision Systems and Instrumentation) with 85 kdyn of impact force and a dwell time of 60 s. After the lesion, the skin was sutured using 9 mm wound clips (BD Biosciences) and the animals were recovered on a heating pad to maintain body temperature. Bladders were manually expressed daily during the entire 12 weeks of the experiment.
PAs (dissolved in sterile NaCl 0.9% solution at 1 wt %) were injected 24 h after SCI using a glass capillary micropipette (Sutter Instruments, Novato, CA) (outer diameter, 100 m) coated with Sigmacote (Sigma-Aldrich) to reduce surface tension as described elsewhere (19). The capillaries were loaded onto a Hamilton syringe using a female Luer adaptor (World Precision Instruments) controlled by a Micro4 microsyringe pump controller (World Precision Instruments). Under isoflurane anesthesia, autoclips were removed and the injury site was exposed. At 24 h post injury, the laminectomy in the spinal column was still intact and the bruise created by the lesion was visible. A stereotaxic Kopf apparatus was used to position the micropipette just dorsal to the lesion. The micropipette was lowered to a depth of 750 m measured from the dorsal surface of the cord, and 4-6 μL of the diluted amphiphile solution was injected at 1 L/min. […]
Axons labeled using BDA (Thermofisher, N7167) or stained with 5HT (Abcam) were quantified using Imaris® software version 9.3 as previously described (21). Lines were drawn across longitudinal spinal cord sections from the proximal border (PB) to the distal border (DB) of the SCI lesion at consistent distances and the number of axons intercepting the lines drawn was counted by researchers that were blinded to the experimental conditions. Multiple sections through the middle of the cord, where BDA or 5HT staining was denser, were counted per mouse and expressed as total intercepts per location, per animal. […]

For data set [5] the test system is unchanged. Nature of the data set: Glial scar, GAP-43, MBP, laminin and fibronectin in the SCI lesion (immunofluorescence, WB). The settings on record: mouse, in vivo. As for the experimental part: as §5, with “After the lesion, the skin was sutured using 9 mm wound clips (BD Biosciences) and the animals were recovered on a heating pad to maintain body temperature. Bladders were manually expressed daily during the entire 12 weeks of the experiment.” left out
PAs (dissolved in sterile NaCl 0.9% solution at 1 wt %) were injected 24 h after SCI using a glass capillary micropipette (Sutter Instruments, Novato, CA) (outer diameter, 100 m) coated with Sigmacote (Sigma-Aldrich) to reduce surface tension as described elsewhere (19). […] The micropipette was lowered to a depth of 750 m measured from the dorsal surface of the cord, and 4-6 μL of the diluted amphiphile solution was injected at 1 L/min. […]

The test system of data set [6] is hNPCs. Nature of the data set: hNPC attachment, proliferation and phenotype on co-assembled PA coatings (EdU, SOX-2, PAX6). It counts as cell-based, human.
From the text: as §1, §2, §3
For the hNPCs proliferation assay, 2 μM of the thymidine analog 5-ethynyl-2′-deoxyuridine (EdU, Thermo Fisher) was incorporated into the culture medium for 24 h. Cells were fixed at the indicated time points in 4% paraformaldehyde (PFA) for 15 min at RT. After fixation, samples were washed in PBS twice and then stained with Click-iT™ EdU Cell Proliferation Kit containing 11 mM CuSO4 (from 50 mM stock) and 1 μg/mL of Alexa Fluor-555 azide (from 0.5 mg/mL, Thermo Fisher) for 30 minutes at RT in the dark. The staining cocktail was then removed, and cells were washed with PBS. Then, hNPCs were counterstained with anti-rabbit SOX-2 antibody following the immunofluorescence protocol described below and 4′, 6-diamidino-2-phenylindole (DAPI, Thermo Fisher) at 5 μg/mL in PBS for 20 min at RT. The cells were then washed with PBS and mounted with Immu-Mount (Fisher Scientific) for imaging.
For immunofluorescence, fixed primary cultures or free-floating tissue sections (40 m Thick) were incubated in blocking buffer containing 0.02% Triton-X (Sigma-Aldrich), 1% NHS (Gibco) and PBS 1× (Gibco). Samples were incubated with primary antibodies over night at 4° C. Alexa-488, Alexa-555 and/or Alexa-647 (1:500, Thermofisher) were used as secondary antibodies. DAPI (1:500, Thermofisher) was used to stain nuclei. […]

T1 sequence (P05556 21-798): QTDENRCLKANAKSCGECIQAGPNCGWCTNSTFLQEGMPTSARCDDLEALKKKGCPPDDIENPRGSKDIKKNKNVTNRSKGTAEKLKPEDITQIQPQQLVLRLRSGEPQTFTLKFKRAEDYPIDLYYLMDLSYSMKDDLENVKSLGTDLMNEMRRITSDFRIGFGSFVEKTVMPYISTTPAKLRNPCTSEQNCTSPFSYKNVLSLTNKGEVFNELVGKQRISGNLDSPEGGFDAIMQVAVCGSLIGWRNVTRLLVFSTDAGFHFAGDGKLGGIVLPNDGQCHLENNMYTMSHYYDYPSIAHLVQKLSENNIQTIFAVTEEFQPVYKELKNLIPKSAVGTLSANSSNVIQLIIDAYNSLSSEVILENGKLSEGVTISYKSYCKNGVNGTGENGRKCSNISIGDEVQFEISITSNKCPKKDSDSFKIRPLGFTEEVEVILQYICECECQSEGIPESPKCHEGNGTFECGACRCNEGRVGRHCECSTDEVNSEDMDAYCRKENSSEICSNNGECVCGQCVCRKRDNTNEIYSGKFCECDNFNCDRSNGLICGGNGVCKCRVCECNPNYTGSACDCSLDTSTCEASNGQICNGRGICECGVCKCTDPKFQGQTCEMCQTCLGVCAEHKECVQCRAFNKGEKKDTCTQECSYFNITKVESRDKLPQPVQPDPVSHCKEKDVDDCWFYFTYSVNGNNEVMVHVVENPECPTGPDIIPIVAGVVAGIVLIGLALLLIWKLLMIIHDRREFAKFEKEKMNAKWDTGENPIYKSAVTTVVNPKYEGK

For C16-VA3E4GIKVAV [IKVAV PA6], the “in vitro bioactivity (summary)” value in data set [1] was “low level of in vitro bioactivity”. Moreover, the “percentage of induction of TUJ-1+ neuronal cells” value in data set [2] is 7.9±1.3%. In data set [3], this substance returned an R2 of 6.1 ± 0.8 s⁻¹.

Take C16-V2A2E2 (VVAAEE) [Backbone PA]: the “CST axon regrowth within the lesion” value in data set [4] is reported as “hardly observed”. In addition, in data set [5], the “glial scar (reactive astrocytes, GFAP) at the borders of the injury” value is on record as “dense population of reactive astrocytes expressing high levels of GFAP”.

Turning to C16-AVG2E4GIKVAV [IKVAV PA3], the “in vitro bioactivity (summary)” value in data set [1] is “low level of in vitro bioactivity”. The “percentage of induction of TUJ-1+ neuronal cells” value in data set [2] stood at 7.5±0.6%. Also, in data set [3], the R2 was 4.5 ± 0.7 s⁻¹.

For the substance laminin, the “percentage of proliferating EdU+ and SOX2+ cells” value in data set [6] is “decreased significantly”. Also, the “percentage of neuronal progenitor cells PAX6+” value in data set [6] (one week later) is listed as “increased percentage”.

With C16-AVA2E4GIKVAV [IKVAV PA7], the “in vitro bioactivity (summary)” value in data set [1] is recorded as “low level of in vitro bioactivity”. Also, the “percentage of induction of TUJ-1+ neuronal cells” value in data set [2] was found to be 7.4±0.6%. For the same substance, in data set [3], the R2 came out at 6.0 ± 0.03 s⁻¹.

C16-A4E4GIKVAV [IKVAV PA8]: the “in vitro bioactivity (summary)” value in data set [1] is “low level of in vitro bioactivity”. Also, the “percentage of induction of TUJ-1+ neuronal cells” value in data set [2] came to 7.5±0.5%. In data set [3], this substance displayed an R2 of 4.5 ± 0.2 s⁻¹.
